Reference: PubChem BioAssay AID330 (DTP/NCI, 2004)
“And” between values parts separate entries of the source, which are not always exact repeats. Identical values can stand only once. Toxic doses and inconclusive results are not listed. The calls were made as follows: active = survival T/C of 150% or more; inactive = T/C below 125% in these data.

Test system: P388 leukemia ip, CD2F1 mice, survival T/C
Experiment: NCI In Vivo Anticancer Drug Screen. Data for tumor model P388 Leukemia (intraperitoneal) in CD2F1 (CDF1) mice
Conditions: endpoint: median survival time, higher = longer survival
Method in brief: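 Mice carrying the transplanted tumor received test compound or vehicle. Survival was recorded in each group, and the value is the treated-group measurement divided by that of the vehicle-treated control group.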

[1] = dose: 25.0 mg/kg/injection, schedule: Q01DX009 (ip), vehicle: saline with Tween-80
[2] = dose: 50.0 mg/kg/injection, schedule: Q01DX009 (ip), vehicle: saline with Tween-80
[3] = dose: 100.0 mg/kg/injection, schedule: Q01DX009 (ip), vehicle: saline with Tween-80
[4] = dose: 200.0 mg/kg/injection, schedule: Q01DX009 (ip), vehicle: saline with Tween-80
[5] = dose: 50.0 mg/kg/injection, schedule: Q01DX005 (ip), vehicle: saline with Tween-80
[6] = dose: 100.0 mg/kg/injection, schedule: Q01DX005 (ip), vehicle: saline with Tween-80
[7] = dose: 200.0 mg/kg/injection, schedule: Q01DX005 (ip), vehicle: saline with Tween-80

Measured: T/C

CCN(CC)c1nc(N)nc(N)n1
inactive: dose: 6.25 mg/kg/injection, schedule: Q01DX009 (ip), vehicle: saline 106 % of control | dose: 12.5 mg/kg/injection, schedule: Q01DX009 (ip), vehicle: saline with Tween-80 107 % of control | dose: 12.5 mg/kg/injection, schedule: Q01DX009 (ip), vehicle: saline 103 % of control | [1] 103 % of control | dose: 25.0 mg/kg/injection, schedule: Q01DX009 (ip), vehicle: saline 107 % of control and 94 % of control | [2] 107 % of control and 94 % of control | dose: 50.0 mg/kg/injection, schedule: Q01DX009 (ip), vehicle: saline 100 % of control | [3] 101 % of control | dose: 100.0 mg/kg/injection, schedule: Q01DX009 (ip), vehicle: saline 97 % of control | [4] 88 % of control

CCCCN=[N+]=[N-]
inactive: dose: 12.5 mg/kg/injection, schedule: Q01DX009 (ip), vehicle: water 91 % of control | dose: 25.0 mg/kg/injection, schedule: Q01DX009 (ip), vehicle: water 98 % of control | dose: 50.0 mg/kg/injection, schedule: Q01DX009 (ip), vehicle: water 98 % of control | dose: 100.0 mg/kg/injection, schedule: Q01DX009 (ip), vehicle: water 100 % of control | dose: 200.0 mg/kg/injection, schedule: Q01DX009 (ip), vehicle: water 96 % of control

CC(C)OC(=O)C#N
inactive: dose: 1.56 mg/kg/injection, schedule: Q01DX005 (ip), vehicle: saline with Tween-80 100 % of control | dose: 3.12 mg/kg/injection, schedule: Q01DX005 (ip), vehicle: saline with Tween-80 101 % of control | dose: 6.25 mg/kg/injection, schedule: Q01DX005 (ip), vehicle: saline with Tween-80 100 % of control | dose: 12.5 mg/kg/injection, schedule: Q01DX005 (ip), vehicle: saline with Tween-80 98 % of control

C(C#Cc1ccccc1)#Cc1ccccc1
inactive: [1] 98 % of control | [2] 99 % of control | [3] 96 % of control | [4] 98 % of control

O=c1[nH]c2c([N+](=O)[O-])cc(Cl)cc2nc1/C=C(\O)c1ccncc1
inactive: dose: 60.0 mg/kg/injection, schedule: Q01DX005 (ip), vehicle: Klucel (hydroxypropylcellulose) (HPC) 102 % of control | dose: 120.0 mg/kg/injection, schedule: Q01DX005 (ip), vehicle: Klucel (hydroxypropylcellulose) (HPC) 99 % of control

COC(=O)c1cc(=O)c2c(ccc3oc(=O)ccc32)[nH]1
inactive: [5] 88 % of control | [6] 88 % of control | [7] 90 % of control

O=C1C=CC(=O)C2=C1CCOC2c1ccccc1 (centres undefined)
inactive: [5] 91 % of control

FC(F)(F)c1cccc(COCCN2CCN(Cc3cccc(C(F)(F)F)c3)CC2)c1
inactive: dose: 60.0 mg/kg/injection, schedule: Q01DX005 (ip), vehicle: saline with Tween-80 103 % of control | dose: 120.0 mg/kg/injection, schedule: Q01DX005 (ip), vehicle: saline with Tween-80 95 % of control | dose: 240.0 mg/kg/injection, schedule: Q01DX005 (ip), vehicle: saline with Tween-80 112 % of control

O=c1cc2c(n[nH]1)-c1ccccc1C2
inactive: [5] 100 % of control | [6] 109 % of control | [7] 96 % of control

CC(C)(C)SSC(=S)C1CCCCC1
inactive: dose: 25.0 mg/kg/injection, schedule: Q01DX005 (ip), vehicle: saline with Tween-80 108 % of control | [5] 106 % of control and 116 % of control | [6] 108 % of control and 118 % of control | [7] 117 % of control

COc1ccc2c(c1OC)C[N+]1(C)CCc3cc4c(cc3C1=C2)OCO4 (centres undefined)
inactive: dose: 0.63 mg/kg/injection, schedule: Q01DX009 (ip), vehicle: water 114 % of control | dose: 1.25 mg/kg/injection, schedule: Q01DX009 (ip), vehicle: water 108 % of control | dose: 2.5 mg/kg/injection, schedule: Q01DX009 (ip), vehicle: water 100 % of control | dose: 5.0 mg/kg/injection, schedule: Q01DX009 (ip), vehicle: water 101 % of control | dose: 10.0 mg/kg/injection, schedule: Q01DX009 (ip), vehicle: water 110 % of control

CC(C)=CCC(OC(=O)CC(C)(C)O)C1=CC(=O)c2c(O)ccc(O)c2C1=O (centres undefined)
inactive: dose: 18.75 mg/kg/injection, schedule: Q01DX005 (ip), vehicle: Klucel (hydroxypropylcellulose) (HPC) 90 % of control | dose: 37.5 mg/kg/injection, schedule: Q01DX005 (ip), vehicle: Klucel (hydroxypropylcellulose) (HPC) 100 % of control

C#Cc1cccc(N=Cc2cc([N+](=O)[O-])ccc2O)c1
inactive: [5] 100 % of control | [6] 99 % of control | [7] 93 % of control
